Reference: patent US10207002B2, “Sustained release formulation and tablets prepared therefrom” (Merck Sharp & Dohme Corp., priority 2015, dated 2019)

Columns and labels:
[1] = Solubility in a basic environment, such as the intestine; format: physicochemical
[2] = Bioavailability on co-administration with a proton-pump inhibitor; format: in vivo; conditions: co-administered with a proton-pump inhibitor

Solubility [1]	Bioavailability [2]	SMILES
poorly soluble	sharp drop in bioavailability	COCCOc1ccc(N2CCN(CCn3ncc4c3nc(N)n3nc(-c5ccco5)nc43)CC2)cc1 [Formula IA, preladenant]
poorly soluble		CC#Cc1nc2c3cnn(CCN4CCN(c5cc6c(C)noc6cc5F)CC4)c3nc(N)n2n1 [Formula IB]
